From US20260183396A1, “CXCR3 OVEREXPRESSION IN CAR-NK CELLS PRIMES MIGRATION/HOMING INTO THE TUMOR MICROENVIRONMENT” (DANA-FARBER CANCER INSTITUTE, INC., priority 2022, published 2026)

Tests used:
STING = STING pathway activation / CXCL10 ELISA in MPM cell lines; format: cell-based, human; details: multiple MPM cell lines treated in vitro
Description: Cytokine analysis. CXCL10 ELISA (R&D Systems DIP100) and granzyme B ELISA (R&D systems DY008) were performed according to manufacturer's instructions on conditioned media collected from cell culture. Cytokine analysis of conditioned media after 3 days of explant (S1) culture (FIG. 9B) utilized the MSD U-PLEX Viral Combo 1 assay (Hu: K15343K-2), which was performed according to manufacturer's instructions.
Cell culture. MPM cell lines were cultured in RPMI-1640 (Thermo Fisher Scientific) supplemented with 10% FBS (Gemini Bio-products). H226, H28, MSTO-211H, H2452 and H2052 were purchased from ATCC. MS428 was provided by the Richards Lab. H2461 and H2591 were provided to Dr. Janne by the NIH (Pass et al., Ann. Thorac. Surg. 59:835-44 (1995)). JMN1B (Demetri et al., Blood 74:940-6 (1989)) and MS589 (Gordon et al., Am. J. Pathol. 166:1827-40 (2005)) were derived at BWH/DFCI and shared internally with permission. All experiments were performed before reaching 10 passages. Mycoplasma infection was regularly checked by PCR using the conditioned media derived from each cell line with primers as previously described (Kitajima et al., Cancer Discov. 9:34-45 (2019)).
Immunoblotting. Cells were lysed in RIPA buffer containing 1× protease inhibitors (Roche 11-836-145-001) and phosphatase inhibitors (50 mmol/L NaF and 100 mmol/L Na3VO4). […]

CXCL10 = CXCL10 release from MPM PDOTS/explants; format: cell-based, human; details: MPM PDOTS, specific samples
Description: Patient-derived organotypic tumor spheroids (PDOTS). PDOTS were generated as previously described (Jenkins et al., Cancer Discov. 8:196-215 (2018); Aref et al., Lab Chip 18:3129-3143 (2018)). Briefly, fresh tumor specimens were minced in a 15 mL falcon tube in prewarmed to 37° C. full media (DMEM from Thermo Fisher Scientific+10% FBS)+100 U/mL collagenase type IV (Life Technologies) and 50 μg/mL dNase I (Roche) for approximately 20 minutes using sterile scissors and pipetting. Dissociated material was strained over 100-μm filter and 40-μm filters to generate S1 (>100 μm), S2 (40-100 μm), and S3 (<40 μm) spheroid fractions, which were subsequently maintained in ultralow-attachment (ULA) tissue culture plates (Corning). […] S2 fractions were used for ex vivo culture by resuspending them in type I rat tail collagen (Corning) at a concentration of 2.8 mg/mL prior to loading into the center gel region of the 3-D microfluidic culture device (AIM Biotech) and incubation for 40 minutes at 37° C. in humidity chambers to allow for polymerization. Collagen hydrogels containing PDOTS were hydrated with media with or without indicated treatments. TAK-676 was provided by Takeda and diluted in dH20. Recombinant human interferon beta (100 ng/ml; R&D Systems) was used as a positive control downstream of STING for STAT1 pathway activation. […]

Nc1ncnc2c1ncn2[C@@H]1O[C@@H]2COP(=O)([S-])O[C@@H]3[C@H](O)[C@@H](COP([O-])(=S)O[C@H]2[C@H]1O)O[C@H]3n1cnc2c(N)ncnc21.[Na+].[Na+] (some centres unmarked) [ADU-S100]
STING pathway activation, CXCL10 secretion (STING): potent pathway activation | CXCL10 release (CXCL10): induced CXCL10 release
